# Reference: PubChem BioAssay (NCI)
#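 Briefly, cells in 96-well plates were exposed to five compound concentrations for 48 h, and endpoints were estimated by linear interpolation. GI50 marks 50% less growth. TGI denotes the concentration required for complete inhibition of growth.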
# Columns and labels:
# Assay in all cases: DTP human tumour cell line panel, 48 h
# [1] = test system: NCI-H226 lung
# [2] = test system: UACC-62 melanoma
# [3] = test system: NCI/ADR-RES ovarian
# [4] = test system: HCT-116 colon
# [5] = test system: HS 578T breast
# [6] = test system: RXF 393 renal
# [7] = test system: U251 CNS
# [8] = test system: TK-10 renal
# [9] = test system: UACC-257 melanoma
# [10] = test system: SF-268 CNS
# [11] = test system: IGROV1 ovarian
# [12] = test system: PC-3 prostate
# [13] = test system: OVCAR-4 ovarian
# [14] = test system: MDA-MB-435
# [15] = test system: OVCAR-3 ovarian
# [16] = test system: SNB-19 CNS
# [17] = test system: K-562 leukemia
# [18] = test system: SK-MEL-2 melanoma
# [19] = test system: MDA-MB-231 breast
# [20] = test system: OVCAR-5 ovarian
# [21] = test system: M14 melanoma
# [22] = test system: MOLT-4 leukemia
# [23] = test system: SNB-75 CNS
# [24] = test system: SF-539 CNS
# [25] = test system: NCI-H460 lung
# [26] = test system: A549 NSCLC
# [27] = test system: BT-549 breast
# [28] = test system: HL-60(TB) leukemia
# [29] = test system: COLO 205 colon
# [30] = test system: NCI-H522 lung
# [31] = test system: MCF7 breast
# [32] = test system: SK-OV-3 ovarian
# [33] = test system: DU-145 prostate
# [34] = test system: HT29 colon
# [35] = test system: HOP-62 NSCLC
# [36] = test system: KM12 colon
# [37] = test system: CAKI-1 renal
# [38] = test system: UO-31 renal
# [39] = test system: CCRF-CEM leukemia
# [40] = test system: NCI-H23 lung
# [41] = test system: MALME-3M melanoma
# [42] = test system: A498 renal
# [43] = test system: SW-620 colon
# [44] = test system: SK-MEL-5 melanoma
# [45] = test system: RPMI-8226 leukemia
# [46] = test system: SR leukemia
# [47] = test system: LOX IMVI melanoma
# [48] = test system: T-47D breast
# [49] = test system: ACHN renal
# [50] = test system: EKVX NSCLC
# [51] = test system: HOP-92 NSCLC
# [52] = test system: SK-MEL-28 melanoma
# [53] = test system: HCC-2998 colon
# [54] = test system: 786-0 renal
# [55] = test system: SF-295 CNS
# [56] = test system: SN12C renal
# [57] = test system: HCT-15 colon
# [58] = test system: OVCAR-8 ovarian
smiles,measurement,setting,value
COc1cc2c(cc1OCCCCCOc1ccc(-n3c(C)nc4ccccc4c3=O)cc1)N=C[C@@H]1CCCN1C2=O,GI50,[1],214 nM
same,TGI,[1],466 nM
same,GI50,[2],171 nM
same,TGI,[2],336 nM
same,GI50,[3],1960 nM
same,TGI,[3],6310 nM
same,GI50,[4],167 nM
same,TGI,[4],327 nM
same,GI50,[5],232 nM
same,TGI,[5],880 nM
same,GI50,[6],210 nM
same,TGI,[6],390 nM
same,GI50,[7],231 nM
same,TGI,[7],759 nM
same,GI50,[8],320 nM
same,TGI,[8],867 nM
same,GI50,[9],434 nM
same,TGI,[9],1480 nM
same,GI50,[10],376 nM
same,GI50,[11],182 nM
same,TGI,[11],640 nM
same,GI50,[12],340 nM
same,TGI,[12],2890 nM
same,GI50,[13],515 nM
same,TGI,[13],13200 nM
same,GI50,[14],184 nM
same,TGI,[14],390 nM
same,GI50,[15],346 nM
same,TGI,[15],15500 nM
same,GI50,[16],1000 nM
same,GI50,[17],164 nM
same,GI50,[18],377 nM
same,TGI,[18],1250 nM
same,GI50,[19],188 nM
same,TGI,[19],636 nM
same,GI50,[20],281 nM
same,TGI,[20],678 nM
same,GI50,[21],180 nM
same,TGI,[21],375 nM
same,GI50,[22],196 nM
same,TGI,[22],500 nM
same,GI50,[23],408 nM
same,TGI,[23],3430 nM
same,GI50,[24],285 nM
same,TGI,[24],728 nM
same,GI50,[25],248 nM
same,TGI,[25],691 nM
same,GI50,[26],276 nM
same,TGI,[26],982 nM
same,GI50,[27],137 nM
same,TGI,[27],340 nM
same,GI50,[28],340 nM
same,TGI,[28],1300 nM
same,GI50,[29],165 nM
same,TGI,[29],370 nM
same,GI50,[30],204 nM
same,TGI,[30],958 nM
same,GI50,[31],271 nM
same,TGI,[31],1300 nM
same,GI50,[32],410 nM
same,TGI,[32],1890 nM
same,GI50,[33],410 nM
same,TGI,[33],3740 nM
same,GI50,[34],317 nM
same,TGI,[34],> 100000 nM
same,GI50,[35],230 nM
same,TGI,[35],524 nM
same,GI50,[36],173 nM
same,TGI,[36],362 nM
same,GI50,[37],275 nM
same,TGI,[37],1020 nM
same,GI50,[38],336 nM
same,TGI,[38],1710 nM
same,GI50,[39],210 nM
same,TGI,[39],588 nM
same,GI50,[40],226 nM
same,TGI,[40],528 nM
same,GI50,[41],236 nM
same,TGI,[41],585 nM
same,GI50,[42],214 nM
same,TGI,[42],543 nM
same,GI50,[43],323 nM
same,TGI,[43],2800 nM
same,GI50,[44],176 nM
same,TGI,[44],353 nM
same,GI50,[45],204 nM
same,TGI,[45],545 nM
same,GI50,[46],110 nM
same,TGI,[46],393 nM
same,GI50,[47],176 nM
same,TGI,[47],447 nM
same,GI50,[48],324 nM
same,GI50,[49],342 nM
same,TGI,[49],1530 nM
same,GI50,[50],778 nM
same,TGI,[50],4770 nM
same,GI50,[51],394 nM
same,TGI,[51],7380 nM
same,GI50,[52],270 nM
same,TGI,[52],853 nM
same,GI50,[53],256 nM
same,TGI,[53],685 nM
same,GI50,[54],157 nM
same,TGI,[54],360 nM
same,GI50,[55],391 nM
same,TGI,[55],1830 nM
same,GI50,[56],264 nM
same,TGI,[56],3380 nM
same,GI50,[57],1130 nM
same,TGI,[57],3900 nM
same,GI50,[58],363 nM
same,TGI,[58],3000 nM
